The text below walks through data of patent US20210130420A1, “RECOMBINANT BINDING PROTEINS TARGETING HER2 AND SERUM ALBUMIN, AND THEIR USES” (Molecular Partners AG, priority 2016, published 2021).

For one data set, the system named is MDA-MB175 cells. Kind of data set: MDA-MB175 cell proliferation, BrdU-labeling. The format is cell-based. As to conditions: for IC50: compound alone or titrated on top of 4 nM Protein #21-His, read-out: cell proliferation inhibition constant IC50, MDA-MB175. How it is done:
(§1) Protein #21 and Protein #21-His were expressed and purified as described in Example 1. Standard BrdU cell proliferation assays were performed, well-known to the person skilled in the art. Briefly, effects on cell proliferation of Protein #21-His, other compounds, or Protein #21-His in combination with other compounds, were determined by measuring DNA synthesis using BrdU-labeling (BrdU, Cell Proliferation ELISA, Roche). Briefly, 10000 cells were seeded per well in a 96 well plate in 100 μl complete medium and incubated for 24 hours. Protein #21-His and/or compounds were added for an additional 72 hours. BrdU for cell labeling was added for the last 24 hours. Labeled (proliferating) cells were detected according to the manufactures protocol. The data were analyzed using the Graph Pad prism software (log [c] vs. OD450-602 nm plot). Data were fitted using a non-linear regression fit (log(antagonist) vs. response—variable slope (four parameters)).

The subject of a further data set is BT474 cells. The data set can be described thus: BT474 cell proliferation, BrdU-labeling. As to conditions: for IC50: Homo sapiens, BT-474, compound alone or titrated on top of 2 nM Protein #21-His, read-out: cell proliferation inhibition constant IC50, BT474. The format is cell-based, human. How it is done:
Protein #21-His and Protein #23-His, were expressed and purified as described in Example 1. Effects of the recombinant binding proteins on BT474 cell proliferation were determined by measuring DNA synthesis using BrdU-labeling (BrdU, Cell Proliferation ELISA, Roche). Briefly, 10000 BT474 cells were seeded per well in a 96 well plate in 100 ul complete medium and incubated for 24 hours. Recombinant binding proteins or controls were added for an additional 72 hours. BrdU for cell labeling was added for the last 24 hours. Labeled (proliferating) cells were detected according to the manufactures protocol. The data were analyzed using the GraphPad prism software, plotting log [c] on the x-axis against OD450-602 nm on the y-axis. Data were fitted using a non-linear regression fit (log(antagonist) vs. response—Variable slope (four parameters)) deriving IC50 values.
as §1

Data set [1] can be described thus: Storage stability in PBS analysed by size-exclusion chromatography. The format is physicochemical. As to conditions: 10 mg/ml in PBS, 1 month at −80° C. How it is done:
A storage stability improvement is also observed, when testing the storage stability of Protein #21 and Protein #22 (recombinant binding proteins consisting of the amino acid sequences corresponding to SEQ ID NOs: 21 and 22, respectively). Protein #21 and Protein #22 are prepared as described in Example 1, samples are concentrated to 10 mg/ml in PBS and stored for 1 month at −80° C. in or at 40° C. in glass vials, followed by analysis on standard size-exclusion chromatography.
(Size exclusion chromatography separates by hydrodynamic size, large species first.)

Data set [2] can be described thus: Pharmacokinetic analysis in mouse. The format is in vivo. On the procedure:
The measurements shown in this example are the result of a half-life engineering effort as described in Example 11. Protein #21-His and Protein #23-His were expressed and purified as described in Example 1. The pharmacokinetic properties of the His-tagged proteins were assessed in mouse as described elsewhere (Zahnd, C., Kawe, M., Stumpp, M. T., de Pasquale, C., Tamaskovic, R., Nagy-Davidescu, G., Dreier, B., Schibli, R., Binz, H. K., Waibel, R., Plückthun, A., Cancer Res. 70, 1595-1605, 2010). […] Having SEQ ID NO: 16 present in the recombinant binding protein thus appears to be more favorable than having SEQ ID NO: 18 present.
Polypeptide linkers that link protein domains are well-known to the person skilled in the art. Gly-Ser-rich linkers are well-known from single-chain Fv antibody fragments, where they have proven to be most appropriate to link the two Fv polypeptide chains. […] Protein #26-His and Protein #27-His, were expressed and purified as described in Example 1. Pharmacokinetic analyses in mouse were performed as described in Example 8.
(§2) For the studies in this example Protein #21-His, Protein #24-His, Protein #28-His, Protein #29-His, and Protein #30-His were prepared according to Example 1. Protein #28-His was additionally PEGylated using a 40 kDa PEG moiety (NOF Sunbright GL2-400MA) by maleimid coupling of the PEG-moiety onto the free C-terminal cysteine of Protein #28-His, followed by purification to homogeneity using standard purification methods, procedures well known to the person skilled in the art. Pharmacokinetic analyses in mouse or cynomolgus monkey were performed as described in Examples 8 and 9.

Data set [3] can be described thus: Pharmacokinetic analysis in cynomolgus monkey. The format is in vivo. To be noted: 1 mg/kg, intravenous infusion. On the procedure:
The measurements shown in this example are the result of a half-life engineering effort as described in Example 11. Protein #21-His, Protein #23-His, and Protein #24-His were expressed and purified as described in Example 1. The pharmacokinetic properties of the proteins were assessed in cynomolgus monkey. Proteins were administered via intravenous infusion for 30 min at a target dose level of between 1 mg/kg to cynomolgus monkeys. Blood samples were collected pre-dose and again at selected time points, for example 5 min, 10 min, 0.5 hours, 1 hour, 2 hours, 4 hours, 8 hours, 12 hours, 24 hours, 48 hours, 72 hours, 96 hours, 120 hours, 144 hours, 168 hours, 192 hours, 216 hours, and 240 hours post-end of infusion (i.e. post-injection). The blood samples were allowed to stand at room temperature and were centrifuged to generate serum, followed by storage at −80° C. pending analyses. Pharmacokinetic parameters were determined using procedures well known to the person skilled in the art. Serum concentrations of proteins were determined by sandwich ELISA using a rabbit monoclonal anti-designed ankyrin repeat domain antibody as capture reagent and murine monoclonal anti-designed ankyrin repeat domain antibody as detection reagent, and using a standard curve. Pharmacokinetic parameters were determined using standard software such as Phoenix WinNonLin (Certara, Princeton, USA) or Graph Pad Prism (GraphPad Software, La Jolla, USA) and standard analyses such as non-compartmental analyses. […] Target mediated clearance is well-known to the person skilled in the art and is known from e.g. antibodies targeting HER2.
Similarly, Protein #21-His was expressed and purified as described in Example 1. The pharmacokinetic properties of the proteins were assessed in cynomolgus monkey as described above at 1 mg/kg, 5 mg/kg and 10 mg/kg.
Similar results are observed when testing Protein #21 (expressed and purified as described in Example 1). The pharmacokinetic properties of the proteins are assessed in cynomolgus monkey as described above at 1 mg/kg, 10 mg/kg and 100 mg/kg. Pharmacokinetic parameters are evaluated as described above.
as §2

For the molecule `C=C1C[C@@H]2CC[C@@]34C[C@H]5O[C@H]6[C@@H](O3)[C@H]3O[C@H](CC[C@@H]3O[C@H]6[C@H]5O4)CC(=O)C[C@@H]3[C@@H](OC)[C@@H](C[C@H](O)CN)O[C@H]3C[C@H]3O[C@@H](CC[C@@H]1O2)C[C@@H](C)C3=C` [Eribulin], the IC50 in the data set with MDA-MB175 cells is 104 nM. Further, the “inhibition of MDA-MB175 cell proliferation, in words” value with MDA-MB175 cells (single agent or on top of suboptimal Protein #21-His (4 nM) or Protein #21 (10 nM)) is reported as “very low potency”. Besides, the “inhibition of BT474 cell proliferation, in words” value in the data set with BT474 cells (single agent or on top of suboptimal Protein #21-His (2 nM) or Protein #21 (1 nM)) is reported as “not active”.

In the case of `CO[C@H]1C[C@@H]2CC[C@@H](C)[C@@](O)(O2)C(=O)C(=O)N2CCCC[C@H]2C(=O)O[C@H]([C@H](C)C[C@@H]2CC[C@@H](OCCO)[C@H](OC)C2)CC(=O)[C@H](C)/C=C(\C)[C@@H](O)[C@@H](OC)C(=O)[C@H](C)C[C@H](C)/C=C/C=C/C=C/1C` [Everolimus], in the data set with MDA-MB175 cells, the IC50 is 263000 nM.

For `CS(=O)(=O)N1CCN(Cc2cc3nc(-c4cccc5[nH]ncc45)nc(N4CCOCC4)c3s2)CC1` [GDC-0941], the results for the IC50 with MDA-MB175 cells and with BT474 cells were 203 nM and 176 nM, respectively.

With `CS(=O)(=O)CCNCc1ccc(-c2ccc3ncnc(Nc4ccc(OCc5cccc(F)c5)c(Cl)c4)c3c2)o1` [Lapatinib], the IC50 came to 2810 nM in the data set with MDA-MB175 cells and 765 nM in the data set with BT474 cells.

B1: Protein #22: SEQ ID NO: 22; corresponding recombinant binding protein with serum albumin binding domains of SEQ ID NO: 13 (protein)
chain: GSDLGKKLLEAARAGQDDEVRELLKAGADVNAKDYFSHTPLHLAARNGHLKIVEVLLKAGADVNAKDFAGKTPLHLAANDGHLEIVEVLLKAGADVNAQDIFGKTPADIAADAGHEDIAEVLQKAAGSPTPTPTTPTPTPTTPTPTPTGSDLGIKLLFAAAKGQDDEVRELLKAGADVNAKDFQGVTPLHIAAQSGHLEIVEVLLKAGADVNAKDVTGDTPLHLAAQHGHLEIVEVLLKAGADVNAQDERGWTPADLAADWGHEDIAEVLQKAAGSPTPTPTTPTPTPTTPTPTPTGSDLGKKLLEAARAGQDDEVRELLKAGADVNAKDEYGLTPLYLATAHGHLEIVEVLLKAGADVNAVDAIGFTPLHLAAFIGHLEIAEVLLKAGADVNAQDKFGKTPADIAAGAGNEDIAEVLQKAAGSPTPTPTTPTPTPTTPTPTPTGSDLGKKLLEAARAGQDDEVRELLKAGADVNAKDYFSHTPLHLAARNGHLKIVEVLLKAGADVNAKDFAGKTPLHLAANDGHLEIVEVLLKAGADVNAQDIFGKTPADIAADAGHEDIAEVLQKAA
modifications: Protein comprising four designed ankyrin repeat domains
In the case of B1, the “elution profiles upon storage at −80° C.” value in data set [1] is “equivalent elution profiles”.

B2: Protein #23-His: SEQ ID NO: 23 with a His-tag (SEQ ID NO: 1) fused to its N terminus (protein)
chain: MRGSHHHHHHGSDLGKKLLEAARAGQDDEVRELLKAGADVNAKDYFSHTPLHLAARNGHLKIVEVLLKAGADVNAKDFAGKTPLHLAANEGHLEIVEVLLKAGADVNAQDIFGKTPADIAADAGHEDIAEVLQKAAGSPTPTPTTPTPTPTTPTPTPTGSDLGVKLLWAAARGQDDEVRELLKAGADVNAKDFQGITPLHIAATNGHLEIVEVLLKAGADVNAKDITGETPLHHAADSGHLEIVEVLLKAGADVNAQDKAGVTPADLAAAWGHEDIAEVLQKAAGSPTPTPTTPTPTPTTPTPTPTGSDLGKKLLEAARAGQDDEVRELLKAGADVNAKDEYGLTPLYLATAHGHLEIVEVLLKAGADVNAVDAIGFTPLHLAAFIGHLEIAEVLLKAGADVNAQDKFGKTPADIAAGAGNEDIAEVLQKAAGSPTPTPTTPTPTPTTPTPTPTGSDLGKKLLEAARAGQDDEVRELLKAGADVNAKDYFSHTPLHLAARNGHLKIVEVLLKAGADVNAKDFAGKTPLHLAANEGHLEIVEVLLKAGADVNAQDIFGKTPADIAADAGHEDIAEVLQKAA
modifications: His-tag; Protein comprising four designed ankyrin repeat domains
In the case of B2, in data set [2], the “% ID remaining after 48 hours” value is on record as 6.5 % ID and the terminal half-life is 24.7 h. The “IC50 higher than that of Protein #21-His” value in the data set with BT474 cells (BT474 proliferation) amounted to 60%. The molecule also showed a terminal half-life in data set [3] of 35 h.
